Where no end group is shown, it is not given here.
How the values were obtained:
Type in all cases: in vivo, maize
[1] = test system: B73 and homozygous fea2 and fea3 mutant seedlings; experiment: Clavata3 peptide root assay (primary root length of seedlings on agar plates); conditions: agar plates containing CLV3 peptide, after 7 days
Experimental: In Arabidopsis, CLAVATA2 activity can be detected by responses of root growth to CLAVATA3 (CLV3) peptide. To analyze whether FEA3 and FEA2 respond to CLV3, and determine if they act in a common pathway a CLV3 peptide assay was performed. B73 and homozygous fea2 and fea3 mutant seedlings were germinated and grown on agar plates containing CLV3 peptide. As a control, seedlings were also grown on plates containing a mutated version of the peptide and on plates without any peptide. After 7 days the length of the primary root was measured.

[2] = test system: B73 and fea3 mutant seedlings; experiment: Clavata3-like peptide root assay (primary root length of seedlings on agar plates); conditions: 5 μM or 10 μM peptide, after 7 days
Experimental: To analyze whether FEA3 responds to CLV3-like peptides, and determine if they act in a common pathway, a CLV3 peptide assay was performed. The peptides used were ZCL3 (Zea mays CLE-like 3; SEQ ID NO:32), FCP1 (SEQ ID NO:33), CLV3 (SEQ ID NO:34), CLE20 (SEQ ID NO:35), CLE40 (SEQ ID NO:36), ZCL21 ([…]; SEQ ID NO:37), and ZCL23 (Zea mays CLE-like 23; SEQ ID NO:38).
The ZCL peptides were found in maize sequences in the NCBI database by homology search using the CLV3, CLE, and rice related peptides (Fiers et al Plant Cell (2005), 17: 2542-2553; Suzaki et al (2008), Plant Cell, 20: 2049-2058).
B73 and fea3 mutant seedlings were germinated and grown on agar plates containing each 5 μM or 10 μM peptide. As a control, seedlings were also grown on plates containing a scramble of the peptide. After 7 days the length of the primary root was measured.

Wt and fea3 embryos = experiment: Embryo culture assay in presence of FCP1 peptide (embryo SAM growth); conditions: 20 μM peptide, two weeks after planting
Experimental: Wt and fea3 embryos were cultured in the presence of 20 μM FCP1 peptide (SEQ ID NO:33) or 20 μM scrambled peptide. For measurement of embryo SAM growth, about 10 days after pollination, embryos were sterilized (whole corn was sterilized, not individual young seeds) and dissected embryos and put the embryos down on the media and the measurement of SAM size was done two weeks after planting (embryo culture).

| Substance | root growth response (length of the primary root) ([1]; B73 wild type plants) | root growth response (length of the primary root) ([1]; homozygous fea2 mutants) | root growth response (length of the primary root) ([1]; homozygous fea3 mutants) | root growth response (length of the primary root) ([2]; B73 wild type plants) | embryo SAM growth (SAM size) (Wt and fea3 embryos; WT embryos) | embryo SAM growth (SAM size) (Wt and fea3 embryos; fea3 embryos) | root growth response (length of the primary root) ([2]; fea3 mutants) |
| --- | --- | --- | --- | --- | --- | --- | --- |
| CLV3: CLAVATA3 (CLV3) peptide (RTVPSGPDPLHH; ends and bridges not checked; listed as Arabidopsis thaliana) | strong root growth inhibition | do not respond | respond | strong root growth inhibition | – | – | – |
| FCP1: CLV3-like peptide used for the CLV3/CLV3-like peptide assay (REVPTGPDPIHH; listed as Oryza sativa) | – | – | – | strong root growth inhibition | strongly inhibited | resistance | less sensitivity |
| ZCL3: Zea mays CLE-like 3 peptide, found in maize sequences by homology search using CLV3, CLE and rice related peptides (RPVPSGPDPIHH; Zea mays) | – | – | – | strong root growth inhibition | – | – | – |

From patent US11643665B2, “Nucleotide sequences encoding Fasciated EAR3 (FEA3) and methods of use thereof” (CORTEVA AGRISCIENCE LLC, priority 2012, dated 2023)
